Test results from publication PMC9837035 (Nature Communications, 2023).
pIC50: −log10 of the molar value. Several values for one entry are separate records, joined by “and”; a condition that tells them apart may be missing. Identical values can stand only once.

Key:
[1] = target: T1, PRMT3 (Homo sapiens, UniProt O60678); experiment: Radioisotope-based methyltransferase assay (selectivity); format: biochemical
T1 construct: purchased Reaction Biology

[2] = target: DNMT3b (Homo sapiens, UniProt Q9UBC3); experiment: biochemical
[3] = target: T2, SUV39H2 (Homo sapiens, UniProt Q9H5I1); experiment: Radioisotope-based methyltransferase assay (selectivity); format: biochemical
T2 construct: purchased Reaction Biology

[4] = target: T3, SET1b (Homo sapiens, UniProt Q9UPS6); experiment: as above; format: biochemical
T3 construct: purchased Reaction Biology

[5] = target: T4, SMYD1 (Homo sapiens, UniProt Q8NB12); experiment: as above; format: biochemical
T4 construct: purchased Reaction Biology
T4 sequence (Q8NB12 1-490): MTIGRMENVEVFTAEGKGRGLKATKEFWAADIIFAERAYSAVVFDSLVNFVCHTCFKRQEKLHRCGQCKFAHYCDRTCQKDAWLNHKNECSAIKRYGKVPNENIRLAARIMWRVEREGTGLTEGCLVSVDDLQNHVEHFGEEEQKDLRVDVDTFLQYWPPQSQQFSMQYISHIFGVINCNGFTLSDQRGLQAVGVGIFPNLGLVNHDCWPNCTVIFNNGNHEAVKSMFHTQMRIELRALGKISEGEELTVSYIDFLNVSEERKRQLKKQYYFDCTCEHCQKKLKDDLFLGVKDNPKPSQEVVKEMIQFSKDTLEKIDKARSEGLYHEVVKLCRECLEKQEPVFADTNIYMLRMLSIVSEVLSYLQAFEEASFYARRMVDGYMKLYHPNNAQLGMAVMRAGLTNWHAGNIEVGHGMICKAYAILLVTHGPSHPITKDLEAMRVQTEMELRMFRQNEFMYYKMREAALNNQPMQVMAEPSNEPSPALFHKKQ

[6] = target: T5, SETD2 (Homo sapiens, UniProt Q9BYW2); experiment: as above; format: biochemical
T5 construct: purchased Reaction Biology

[7] = tested on: BCL11A- or ZBTB7A-knockout HUDEP-2 cells; experiment: RT-qPCR of BGLT3, β- and γ-globin in BCL11A- or ZBTB7A-knockout HUDEP-2 cells; format: cell-based, human
Method: (§1) Total cellular RNA was prepared using the Tissue Total RNA Mini Kit (FAVORGEN), and cDNA was synthesized using ReverTra Ace Master Mix (TOYOBO). Expression of target genes was analyzed using THUNDERBIRD SYBR qPCR Mix (TOYOBO) on a CFX Connect Real Time System (Bio-Rad). The qPCR data were acquired on CFX Maestro (Bio-Rad). Primers are listed in Supplementary Table 10. GAPDH was used as a reference. Primers were purchased from INTEGRATED DNA TECHNOLOGIES or FASMAC.

[8] = tested on: CD34+ cells; experiment: Cell viability of CD34+ cells by cell counting; format: cell-based, human; conditions: for cell viability: CD34+ cells, 10 days
Method: (§2) HUDEP-2 cells and HiDEP-1 cells were grown in Stemline II Hematopoietic Stem Cell Expansion Medium (Sigma) supplemented with 50 ng/mL recombinant stem cell factor (SCF; R&D systems), 3 IU/mL recombinant erythropoietin (EPO; Kyowa Kirin), 1 μM dexamethasone (Dex; Sigma), and 1 μg/mL doxycycline (Sigma). A total of 1 × 10^5 human CD34^+ progenitor cells derived from bone marrow or peripheral blood (Lonza) were cultured on 35-mm dishes (BD Falcon) in StemSpan SFEMII medium with 50 ng/mL SCF, 5 IU/mL EPO, and 10 ng /mL interleukin 3 (IL-3; R&D systems). The medium was changed on day 4 to SCF, EPO, and 1 μM Dex, and the cells were transferred to 60-mm dishes (BD Falcon). Seven days after the onset of differentiation, cells were counted and 1 × 10^6 cells were re-plated on 100-mm dishes (BD Falcon) with SCF, EPO, and Dex. The rat myoblast cell line H9c2, HEK293T, and PLAT-E cells were maintained in Dulbecco’s modified Eagle’s medium (Thermo Fisher Scientific) supplemented with 10% heat-inactivated fetal bovine serum (FBS) and penicillin/streptomycin. All cells were cultured at 37 °C under 5% CO2.

[9] = tested on: BGLT3 RNA in CD34+ cells; experiment: RT-qPCR of BGLT3 in CD34+ cells; format: cell-based, human; conditions: for BGLT3 expression in CD34+ cells treated with hydroxyurea: relative to DMSO = 1, replicate values; for BGLT3 expression: primary human CD34+ cells
Method: as §2, §1

[10] = tested on: BCL11A and ZBTB7A in HUDEP-2 cells; experiment: RT-qPCR of BCL11A and ZBTB7A in HUDEP-2 cells; format: cell-based, human; conditions: for expression of BCL11A and ZBTB7A: HUDEP-2
Method: as §1

[11] = tested on: HbF in CD34+-derived cells; experiment: Flow cytometry of HbF-expressing CD34+-derived cells; format: cell-based, human
Method: For the analysis of HbF expression, HUDEP-2 cells or cells differentiated from human CD34 + progenitor cells were fixed in 0.05% glutaraldehyde for 10 min, then washed two times with PBS containing 2% FBS (PBS/2% FBS) and permeabilized with 0.1% Triton X-100 (prepared in PBS/2% FBS; Life Technologies) for 5 min. After washing with PBS/2% FBS two times, cells were stained with allophycocyanin (APC)-conjugated HbF antibody (1:1, Invitrogen, MHFH05). One million cells were incubated with the HbF–APC antibody for 30 min in the dark at 4 °C. Cells were washed twice with PBS/2% FBS, then suspended in 0.2 ml PBS/2% FBS and analyzed using a FACSCalibur (Becton Dickinson). To assess erythroid differentiation, hematopoietic cells differentiated from human CD34 cells were stained with FITC-conjugated CD45 antibody (1:1, Becton Dickinson, 555482) and APC-conjugated glycophorin A antibody (1:20, Becton Dickinson, 551336). Stained cells were suspended in 0.2 ml PBS/2% FBS containing 1 μg/ml propidium iodide (Sigma) and analyzed by FACSCalibur. The results of flow cytometer were further analyzed by FlowJo software (Becton Dickinson).

[12] = BCL11AKO, relative to Parental DMSO = 1, replicate values
[13] = ZBTB7AKO, relative to Parental DMSO = 1, replicate values
[14] = 50 μM, relative to DMSO = 1, replicate values
[15] = 100 μM, relative to DMSO = 1, replicate values
[16] = 200 μM, relative to DMSO = 1, replicate values
[17] = 0.01 μM, relative to DMSO = 1, replicate values

T2 sequence (Q9H5I1 whole entry): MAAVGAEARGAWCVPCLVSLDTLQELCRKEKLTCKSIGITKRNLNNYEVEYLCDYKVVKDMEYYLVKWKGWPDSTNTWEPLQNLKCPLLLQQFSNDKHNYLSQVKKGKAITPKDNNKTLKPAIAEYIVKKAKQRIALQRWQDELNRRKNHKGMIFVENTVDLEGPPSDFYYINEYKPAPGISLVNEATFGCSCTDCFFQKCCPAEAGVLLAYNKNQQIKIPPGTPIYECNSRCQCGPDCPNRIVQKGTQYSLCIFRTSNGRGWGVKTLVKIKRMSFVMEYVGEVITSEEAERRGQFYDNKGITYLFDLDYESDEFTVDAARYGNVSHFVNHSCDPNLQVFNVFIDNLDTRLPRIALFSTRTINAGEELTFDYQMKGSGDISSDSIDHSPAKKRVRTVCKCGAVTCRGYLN
T5 sequence (Q9BYW2 whole entry): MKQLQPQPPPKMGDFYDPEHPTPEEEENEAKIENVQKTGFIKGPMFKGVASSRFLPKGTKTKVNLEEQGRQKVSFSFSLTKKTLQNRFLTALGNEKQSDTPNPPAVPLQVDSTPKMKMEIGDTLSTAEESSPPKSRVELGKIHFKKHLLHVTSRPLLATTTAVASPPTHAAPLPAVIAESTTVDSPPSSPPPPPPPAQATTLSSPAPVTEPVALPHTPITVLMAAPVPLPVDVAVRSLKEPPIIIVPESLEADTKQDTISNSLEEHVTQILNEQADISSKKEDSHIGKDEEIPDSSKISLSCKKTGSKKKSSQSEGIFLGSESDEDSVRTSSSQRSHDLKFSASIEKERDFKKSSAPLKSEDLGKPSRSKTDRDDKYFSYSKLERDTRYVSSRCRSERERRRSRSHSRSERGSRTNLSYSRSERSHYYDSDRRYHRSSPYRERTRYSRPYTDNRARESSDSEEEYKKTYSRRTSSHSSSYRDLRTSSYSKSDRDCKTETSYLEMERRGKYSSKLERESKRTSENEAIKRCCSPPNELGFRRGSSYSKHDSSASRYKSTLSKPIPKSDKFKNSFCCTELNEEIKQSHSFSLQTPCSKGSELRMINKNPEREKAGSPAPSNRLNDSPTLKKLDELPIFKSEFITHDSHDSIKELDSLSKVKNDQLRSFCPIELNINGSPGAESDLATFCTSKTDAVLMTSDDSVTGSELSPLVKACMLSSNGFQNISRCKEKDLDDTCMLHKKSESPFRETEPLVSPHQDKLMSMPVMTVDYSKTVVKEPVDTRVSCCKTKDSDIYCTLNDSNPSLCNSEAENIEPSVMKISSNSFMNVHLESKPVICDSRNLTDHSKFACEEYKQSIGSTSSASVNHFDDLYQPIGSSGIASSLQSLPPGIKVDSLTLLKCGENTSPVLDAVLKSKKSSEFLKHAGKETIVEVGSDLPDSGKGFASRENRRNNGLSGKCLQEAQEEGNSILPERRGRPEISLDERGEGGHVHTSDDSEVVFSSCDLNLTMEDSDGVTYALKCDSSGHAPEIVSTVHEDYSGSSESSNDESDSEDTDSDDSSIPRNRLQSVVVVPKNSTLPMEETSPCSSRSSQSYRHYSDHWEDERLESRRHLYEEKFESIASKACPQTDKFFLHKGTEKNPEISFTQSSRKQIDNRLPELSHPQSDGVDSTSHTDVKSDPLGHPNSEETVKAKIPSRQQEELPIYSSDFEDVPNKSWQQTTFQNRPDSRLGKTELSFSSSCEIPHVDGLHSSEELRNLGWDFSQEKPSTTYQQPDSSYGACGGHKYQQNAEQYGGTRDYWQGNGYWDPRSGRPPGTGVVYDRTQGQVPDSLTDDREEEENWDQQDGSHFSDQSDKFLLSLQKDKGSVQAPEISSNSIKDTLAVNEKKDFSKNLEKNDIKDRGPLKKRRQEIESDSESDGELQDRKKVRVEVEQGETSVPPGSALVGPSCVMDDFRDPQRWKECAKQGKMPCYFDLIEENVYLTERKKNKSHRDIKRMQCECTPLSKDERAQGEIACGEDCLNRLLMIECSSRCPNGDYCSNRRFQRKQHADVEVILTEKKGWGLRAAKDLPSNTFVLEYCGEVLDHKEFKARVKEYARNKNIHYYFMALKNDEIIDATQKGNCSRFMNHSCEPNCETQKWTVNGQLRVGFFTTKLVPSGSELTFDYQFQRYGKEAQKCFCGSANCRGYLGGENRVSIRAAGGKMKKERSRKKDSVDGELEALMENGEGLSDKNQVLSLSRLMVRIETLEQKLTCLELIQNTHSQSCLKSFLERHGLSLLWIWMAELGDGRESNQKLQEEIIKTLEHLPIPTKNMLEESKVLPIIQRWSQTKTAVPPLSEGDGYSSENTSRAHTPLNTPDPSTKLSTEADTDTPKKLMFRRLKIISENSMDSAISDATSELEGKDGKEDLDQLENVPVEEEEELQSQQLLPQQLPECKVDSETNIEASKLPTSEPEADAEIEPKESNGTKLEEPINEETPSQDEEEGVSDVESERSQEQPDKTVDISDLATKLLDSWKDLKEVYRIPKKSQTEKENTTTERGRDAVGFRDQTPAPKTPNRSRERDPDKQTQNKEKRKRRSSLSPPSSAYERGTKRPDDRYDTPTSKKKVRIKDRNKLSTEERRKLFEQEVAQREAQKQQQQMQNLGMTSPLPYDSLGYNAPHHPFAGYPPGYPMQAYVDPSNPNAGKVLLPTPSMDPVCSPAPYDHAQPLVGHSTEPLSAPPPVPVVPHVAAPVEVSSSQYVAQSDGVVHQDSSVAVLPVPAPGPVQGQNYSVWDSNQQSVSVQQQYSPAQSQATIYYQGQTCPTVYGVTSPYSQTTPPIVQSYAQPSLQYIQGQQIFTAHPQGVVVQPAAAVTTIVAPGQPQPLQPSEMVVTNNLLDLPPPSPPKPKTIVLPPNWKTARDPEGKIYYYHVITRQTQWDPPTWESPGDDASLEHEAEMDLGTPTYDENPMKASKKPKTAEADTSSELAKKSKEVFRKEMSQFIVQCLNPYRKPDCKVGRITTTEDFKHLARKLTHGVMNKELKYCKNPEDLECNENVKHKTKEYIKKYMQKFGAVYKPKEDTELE
T1 sequence (O60678 whole entry): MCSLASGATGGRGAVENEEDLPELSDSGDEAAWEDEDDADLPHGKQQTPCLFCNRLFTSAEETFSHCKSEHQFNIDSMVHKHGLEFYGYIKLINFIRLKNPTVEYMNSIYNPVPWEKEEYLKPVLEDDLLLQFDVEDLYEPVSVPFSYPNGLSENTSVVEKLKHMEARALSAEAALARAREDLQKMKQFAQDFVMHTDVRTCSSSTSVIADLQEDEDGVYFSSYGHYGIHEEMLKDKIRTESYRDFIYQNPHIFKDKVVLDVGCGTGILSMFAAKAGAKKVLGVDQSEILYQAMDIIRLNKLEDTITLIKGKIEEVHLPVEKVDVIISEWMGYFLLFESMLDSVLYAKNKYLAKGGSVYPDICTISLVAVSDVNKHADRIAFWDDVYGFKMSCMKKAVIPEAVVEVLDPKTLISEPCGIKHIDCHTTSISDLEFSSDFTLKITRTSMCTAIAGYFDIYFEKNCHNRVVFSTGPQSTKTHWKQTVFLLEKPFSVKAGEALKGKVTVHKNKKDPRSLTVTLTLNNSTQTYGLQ

SMILES: Nc1ncnc2c1ncn2[C@@H]1O[C@H](CSCC[C@H](N)C(=O)O)[C@@H](O)[C@H]1O [SAH, S-(5'-Adenosyl)-L-homocysteine, reference compound]
- pIC50 ([1]; PRMT3, 1 μM SAM): 5.62
- pIC50 ([1]; PRMT3, RK-701 in duplicate): 5.61
- pIC50 [2]: 6.95
- pIC50 ([3]; SUV39H2, 1 μM SAM): 4.69
- pIC50 ([3]; SUV39H2, RK-701 in duplicate): 4.69
- pIC50 ([4]; 1 μM SAM): 5.28
- pIC50 ([4]; RK-701 in duplicate): 5.28
- pIC50 ([5]; SMYD1, 1 μM SAM): 4.32
- pIC50 ([5]; SMYD1, RK-701 in duplicate): 4.32
- pIC50 ([6]; SETD2, 1 μM SAM): 5.28
- pIC50 ([6]; SETD2, RK-701 in duplicate): 5.27

SMILES: NC(=O)NO [Hydroxyurea, hydroxyurea]
- β-globin in hydroxyurea-treated BCL11A-knockout HUDEP-2 cells [7, 12]: 0.8331 and 0.6286 and 0.8387
- γ-globin in hydroxyurea-treated BCL11A-knockout HUDEP-2 cells [7, 12]: 30.3873 and 19.1624 and 29.0192
- BGLT3 expression ([7]; Left panel, BCL11AKO HUDEP-2 cells treated with hydroxyurea, Parental DMSO = 1, 3 replicates): 4.086 and 4.522 and 3.744
- BGLT3 expression ([7]; Left panel, ZBTB7AKO HUDEP-2 cells treated with hydroxyurea, Parental DMSO = 1, 3 replicates): 7.409 and 8.146 and 6.041
- BGLT3 expression ([7]; Right panel, BCL11AKO HUDEP-2 cells treated with hydroxyurea, DMSO of the same cells = 1, 3 replicates): 0.9046 and 1.002 and 0.9124
- BGLT3 expression ([7]; Right panel, ZBTB7AKO HUDEP-2 cells treated with hydroxyurea, DMSO of the same cells = 1, 3 replicates): 1.218 and 1.432 and 1.28
- β-globin in hydroxyurea-treated ZBTB7A-knockout HUDEP-2 cells [7, 13]: 0.1643 and 0.09952 and 0.1527
- γ-globin in hydroxyurea-treated ZBTB7A-knockout HUDEP-2 cells [7, 13]: 16.1366 and 9.002 and 13.1897
- Cell viability in CD34+ cells ([8]; 10 μM): 3.83 10*7 cells and 4.25 10*7 cells and 4.44 10*7 cells
- Cell viability in CD34+ cells ([8]; 50 μM): 1.8 10*7 cells and 1.47 10*7 cells and 1.48 10*7 cells
- cell viability [8]: severe cytotoxicity
- BGLT3 expression in CD34+ cells treated with hydroxyurea ([9]; DAY7, 10 μM): 1.048 and 1.203 and 1.026
- BGLT3 expression in CD34+ cells treated with hydroxyurea ([9]; DAY7, 50 μM): 1.743 and 1.82 and 2.054
- BGLT3 expression in CD34+ cells treated with hydroxyurea ([9]; DAY9, 10 μM): 1.52 and 1.518 and 1.0769
- BGLT3 expression in CD34+ cells treated with hydroxyurea ([9]; DAY9, 50 μM): 2.568 and 2.893 and 2.233
- BGLT3 expression [9]: promoted BGLT3 expression
- BCL11A expression in HUDEP-2 cells treated with hydroxyurea [10, 14]: 1.149 and 0.8339 and 1.127
- ZBTB7A expression in HUDEP-2 cells treated with hydroxyurea [10, 14]: 1.5773 and 1.182 and 1.627
- BCL11A expression in HUDEP-2 cells treated with hydroxyurea [10, 15]: 1.406 and 0.8316 and 1.105
- ZBTB7A expression in HUDEP-2 cells treated with hydroxyurea [10, 15]: 3.378 and 1.925 and 2.126
- BCL11A expression in HUDEP-2 cells treated with hydroxyurea [10, 16]: 0.9537 and 0.8461 and 1.024
- ZBTB7A expression in HUDEP-2 cells treated with hydroxyurea [10, 16]: 5.802 and 2.404 and 2.049
- expression of BCL11A and ZBTB7A [10]: did not significantly affect
- HbF induction compared with RK-701 [11]: less effective in inducing HbF than RK-701
- Percentage of HbF-expressing cells ([11]; day 11, 10 μM, listed as HU): 32.8% and 45.2% and 37.4%
- Percentage of HbF-expressing cells ([11]; day 11, 50 μM, listed as HU): 63% and 65.2% and 61.5%

SMILES: Cc1c(C(=O)NC(CCC2CC2)C(=O)Nc2ccc(C#N)cc2)[nH]c2c1C(=O)CC(C)(C)C2 (stereo not drawn) [RK-701]
- pIC50 ([1]; PRMT3, 1 μM SAM): < 4.00
- pIC50 ([1]; PRMT3, RK-701 in duplicate): < 4.00
- BGLT3 expression ([7]; BCL11A KO HUDEP-2 cells treated with RK-701, parental DMSO = 1, replicates 1a-3b): 6.941 and 5.75 and 6.485 and 4.87 and 5.182 and 3.691
- BGLT3 expression ([7]; BCL11A knockout HUDEP-2): could no longer increase BGLT3 expression
- BGLT3 expression ([7]; ZBTB7A KO HUDEP-2 cells treated with RK-701, parental DMSO = 1, replicates 1a-3b): 4.7282 and 5.8001 and 5.631 and 4.239 and 5.932 and 4.543
- BGLT3 expression ([7]; ZBTB7A knockout HUDEP-2): prevented RK-701 from increasing BGLT3 expression
- Cell viability in CD34+ cells ([8]; 0.01 μM): 4.59 10*7 cells and 4.56 10*7 cells and 4.57 10*7 cells
- Cell viability in CD34+ cells ([8]; 0.03 μM): 4.39 10*7 cells and 4.41 10*7 cells and 4.97 10*7 cells
- Cell viability in CD34+ cells ([8]; 0.1 μM): 4.54 10*7 cells and 4.45 10*7 cells and 4.75 10*7 cells
- Cell viability in CD34+ cells ([8]; 0.3 μM): 4.11 10*7 cells and 4.64 10*7 cells and 4.5 10*7 cells
- Cell viability in CD34+ cells ([8]; 1 μM): 4.01 10*7 cells and 4.28 10*7 cells and 4.43 10*7 cells
- Cell viability in CD34+ cells ([8]; 3 μM): 4.31 10*7 cells and 4.53 10*7 cells and 4.47 10*7 cells
- cell viability [8]: without affecting cell viability
- pIC50 [2]: < 4.00
- BGLT3 expression [9]: induced BGLT3 expression
- BCL11A expression in HUDEP-2 cells [10, 17]: 0.7709 and 1.287 and 1.333
- ZBTB7A expression in HUDEP-2 cells [10, 17]: 0.7642 and 1.54 and 1.588
- expression of BCL11A and ZBTB7A [10]: did not significantly affect
- pIC50 ([3]; SUV39H2, 1 μM SAM): < 4.00
- pIC50 ([3]; SUV39H2, RK-701 in duplicate): < 4.00
- pIC50 ([4]; 1 μM SAM): 4.31
- pIC50 ([4]; RK-701 in duplicate): 4.32 and 4.30
- Percentage of HbF-expressing cells ([11]; day 11, 0.01 μM): 22.7% and 27% and 19%
- Percentage of HbF-expressing cells ([11]; day 11, 0.03 μM): 41.2% and 51.3% and 42.4%
- Percentage of HbF-expressing cells ([11]; day 11, 0.1 μM): 71.3% and 76.8% and 67.7%
- Percentage of HbF-expressing cells ([11]; day 11, 0.3 μM): 83.5% and 83.7% and 81.1%
- Percentage of HbF-expressing cells ([11]; day 11, 1 μM): 84.2% and 87.4% and 83.5%
- Percentage of HbF-expressing cells ([11]; day 11, 3 μM): 84.8% (2×) and 85.2%
- pIC50 ([5]; SMYD1, 1 μM SAM): 4.28
- pIC50 ([5]; SMYD1, RK-701 in duplicate): 4.35 and 4.22
- pIC50 ([6]; SETD2, 1 μM SAM): < 4.00
- pIC50 ([6]; SETD2, RK-701 in duplicate): < 4.00
